{"source": "patent US20220241230A1", "about": "“DICLOFENAC SACHET COMPOSITION” (Patrin Pharma, Inc., priority 2021, published 2022)", "origin": "cited, not measured here", "key": {"[1]": {"details": "100 mg and 50 mg tablets, versus placebo"}, "[2]": {"details": "commercially available sugar coated tablets"}, "[3]": {"details": "50 mg and 100 mg sugar coated tablets"}}, "data": [{"smiles": "O=C(O)Cc1ccccc1Nc1c(Cl)cccc1Cl", "note": "[diclofenac, [(2,6-dichloro-anilino)-2-phenyl]-2-acetic acid]", "values": [{"measurement": "effectiveness against migraine pain within two hours of treatment", "setting": "[1]", "result": "both strengths were effective"}, {"measurement": "effectiveness against phonophobia and photophobia within two hours", "setting": "[1]", "result": "only the 100 mg strength was effective"}]}, {"smiles": "O=C(O)Cc1ccccc1Nc1c(Cl)cccc1Cl", "note": "[diclofenac potassium, Diclofenac potassium]", "values": [{"measurement": "terminal half-life", "setting": "[2]", "result": "about 1.9 hours"}, {"measurement": "incidence of headache recurrence within 48 hours of treatment", "setting": "50 mg and 100 mg immediate release tablets, versus placebo, statistical significance not reported", "result": "higher incidence of headache recurrence than patients treated with placebo"}, {"measurement": "effectiveness against phonophobia two hours after treatment", "setting": "[3]", "result": "only the 100 mg dose was effective"}, {"measurement": "effectiveness against photophobia eight hours after treatment", "setting": "[3]", "result": "both doses were effective"}, {"measurement": "effectiveness against photophobia two hours after treatment", "setting": "[3]", "result": "neither dose was effective"}, {"measurement": "relief of migraine pain within two hours of treatment", "setting": "[3]", "result": "ability of both doses to relieve migraine pain"}, {"measurement": "effectiveness against photophobia eight hours after treatment, 50 mg dose", "setting": "50 mg sugar coated tablets", "result": "effective"}]}]}
